Test results published in ChEMBL document CHEMBL3286323, “The design and synthesis of novel SGLT2 inhibitors: C-glycosides with benzyltriazolopyridinone and phenylhydantoin as the aglycone moieties” (Bioorg Med Chem, 2014).

Legend:
[1] = molecular target: T1, Sodium/glucose cotransporter 1 (Homo sapiens, UniProt P13866); assay: Inhibition of human SGLT1 expressed in CHOK1 cells assessed as inhibition of [14C]-AMG uptake after 3 hrs by microbeta scintillation counting analysis; type: cell-based, CHO-K1
T1 sequence (P13866 whole entry): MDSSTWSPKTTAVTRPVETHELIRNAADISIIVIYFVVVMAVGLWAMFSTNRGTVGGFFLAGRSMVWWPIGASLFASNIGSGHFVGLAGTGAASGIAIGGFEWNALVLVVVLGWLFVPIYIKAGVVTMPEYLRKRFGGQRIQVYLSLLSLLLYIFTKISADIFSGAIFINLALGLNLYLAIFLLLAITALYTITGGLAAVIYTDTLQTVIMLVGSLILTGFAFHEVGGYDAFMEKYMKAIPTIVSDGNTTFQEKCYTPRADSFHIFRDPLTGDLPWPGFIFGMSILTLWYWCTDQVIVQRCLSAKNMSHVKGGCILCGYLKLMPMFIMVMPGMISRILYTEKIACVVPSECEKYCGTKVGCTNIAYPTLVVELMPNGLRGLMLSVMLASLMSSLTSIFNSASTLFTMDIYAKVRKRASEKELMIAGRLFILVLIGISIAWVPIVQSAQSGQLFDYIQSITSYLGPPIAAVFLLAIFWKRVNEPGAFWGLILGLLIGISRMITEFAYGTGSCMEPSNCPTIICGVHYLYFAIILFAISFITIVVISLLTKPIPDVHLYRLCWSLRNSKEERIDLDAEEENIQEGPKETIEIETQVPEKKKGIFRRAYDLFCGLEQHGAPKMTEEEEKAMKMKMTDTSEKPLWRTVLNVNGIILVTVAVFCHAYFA

[2] = molecular target: T2, Sodium/glucose cotransporter 2 (Homo sapiens, UniProt P31639); assay: Inhibition of human SGLT2 expressed in CHOK1 cells assessed as inhibition of [14C]-AMG uptake after 3 hrs by microbeta scintillation counting analysis; type: cell-based, CHO-K1
T2 sequence (P31639 whole entry): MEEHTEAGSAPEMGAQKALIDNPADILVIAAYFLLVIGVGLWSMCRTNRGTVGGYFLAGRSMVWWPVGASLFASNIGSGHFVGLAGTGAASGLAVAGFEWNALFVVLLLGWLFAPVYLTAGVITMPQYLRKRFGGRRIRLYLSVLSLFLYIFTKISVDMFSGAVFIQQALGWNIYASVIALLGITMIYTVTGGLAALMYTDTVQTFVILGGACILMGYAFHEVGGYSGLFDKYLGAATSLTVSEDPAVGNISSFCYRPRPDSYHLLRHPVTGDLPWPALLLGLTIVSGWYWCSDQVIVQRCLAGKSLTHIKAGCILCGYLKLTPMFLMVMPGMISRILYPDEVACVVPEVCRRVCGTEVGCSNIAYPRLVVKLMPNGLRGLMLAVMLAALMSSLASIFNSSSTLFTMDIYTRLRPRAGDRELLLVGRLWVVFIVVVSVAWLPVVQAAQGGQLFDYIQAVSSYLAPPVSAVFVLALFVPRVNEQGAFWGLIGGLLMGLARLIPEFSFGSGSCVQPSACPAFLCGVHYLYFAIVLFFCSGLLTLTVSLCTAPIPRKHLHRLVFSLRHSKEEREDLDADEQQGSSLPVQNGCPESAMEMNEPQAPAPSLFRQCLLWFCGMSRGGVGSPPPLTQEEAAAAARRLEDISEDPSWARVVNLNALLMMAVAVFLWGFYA

Cytochrome P450 2C9 = Cytochrome P450 2C9 (Homo sapiens, UniProt P11712); assay: Inhibition of CYP2C9 (unknown origin); type: ADME
Chain of Cytochrome P450 2C9 (P11712 whole entry): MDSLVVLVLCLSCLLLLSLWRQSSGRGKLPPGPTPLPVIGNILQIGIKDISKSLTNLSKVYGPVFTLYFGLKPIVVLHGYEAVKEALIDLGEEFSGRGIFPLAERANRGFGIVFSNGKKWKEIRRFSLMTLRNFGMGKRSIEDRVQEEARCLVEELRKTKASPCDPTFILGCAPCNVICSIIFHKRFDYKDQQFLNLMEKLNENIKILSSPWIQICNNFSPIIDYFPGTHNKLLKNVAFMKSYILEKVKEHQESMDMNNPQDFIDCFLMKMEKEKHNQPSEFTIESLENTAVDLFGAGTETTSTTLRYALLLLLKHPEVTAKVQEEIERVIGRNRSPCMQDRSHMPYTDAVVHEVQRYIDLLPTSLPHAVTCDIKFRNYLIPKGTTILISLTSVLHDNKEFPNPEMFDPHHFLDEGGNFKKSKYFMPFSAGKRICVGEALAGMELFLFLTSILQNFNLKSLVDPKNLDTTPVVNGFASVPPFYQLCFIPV

[3] = Intrinsic clearance in human liver microsomes; type: ADME; settings: read-out: CLH
Cytochrome P450 2D6 = Cytochrome P450 2D6 (Homo sapiens, UniProt P10635); assay: Inhibition of CYP2D6 (unknown origin); type: ADME
Chain of Cytochrome P450 2D6 (P10635 whole entry): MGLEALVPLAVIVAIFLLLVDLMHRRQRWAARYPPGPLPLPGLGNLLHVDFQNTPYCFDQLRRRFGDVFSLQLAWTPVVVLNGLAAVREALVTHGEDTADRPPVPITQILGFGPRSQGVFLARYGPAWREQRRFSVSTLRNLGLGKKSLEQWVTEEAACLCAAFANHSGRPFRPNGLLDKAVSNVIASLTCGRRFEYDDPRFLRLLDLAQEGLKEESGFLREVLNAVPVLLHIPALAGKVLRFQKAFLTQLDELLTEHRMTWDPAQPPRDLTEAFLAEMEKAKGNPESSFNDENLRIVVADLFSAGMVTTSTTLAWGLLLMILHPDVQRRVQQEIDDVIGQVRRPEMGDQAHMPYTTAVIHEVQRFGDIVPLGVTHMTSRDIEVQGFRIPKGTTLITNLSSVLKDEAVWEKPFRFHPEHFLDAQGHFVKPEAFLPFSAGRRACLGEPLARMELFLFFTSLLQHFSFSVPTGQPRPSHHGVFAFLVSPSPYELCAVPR

[4] = Intrinsic clearance in rat liver microsomes; type: ADME; settings: read-out: CLH
Cytochrome P450 3A4 = Cytochrome P450 3A4 (Homo sapiens, UniProt P08684); assay: Inhibition of CYP3A4 (unknown origin); type: ADME
Chain of Cytochrome P450 3A4 (P08684 whole entry): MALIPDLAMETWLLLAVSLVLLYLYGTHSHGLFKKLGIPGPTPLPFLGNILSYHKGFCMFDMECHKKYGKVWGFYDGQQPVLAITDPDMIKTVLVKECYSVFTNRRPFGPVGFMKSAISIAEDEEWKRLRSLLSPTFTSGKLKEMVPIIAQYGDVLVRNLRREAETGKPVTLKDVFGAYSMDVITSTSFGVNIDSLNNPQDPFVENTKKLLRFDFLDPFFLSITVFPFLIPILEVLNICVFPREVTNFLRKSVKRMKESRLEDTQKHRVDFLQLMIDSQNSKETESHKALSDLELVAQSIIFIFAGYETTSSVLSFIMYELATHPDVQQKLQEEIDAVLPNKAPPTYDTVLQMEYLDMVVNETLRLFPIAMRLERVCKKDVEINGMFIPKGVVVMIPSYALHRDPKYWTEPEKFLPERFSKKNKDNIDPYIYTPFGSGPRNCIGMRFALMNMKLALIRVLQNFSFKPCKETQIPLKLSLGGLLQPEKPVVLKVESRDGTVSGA

Cytochrome P450 2C19 = Cytochrome P450 2C19 (Homo sapiens, UniProt P33261); assay: Inhibition of CYP2C19 (unknown origin); type: ADME
Chain of Cytochrome P450 2C19 (P33261 whole entry): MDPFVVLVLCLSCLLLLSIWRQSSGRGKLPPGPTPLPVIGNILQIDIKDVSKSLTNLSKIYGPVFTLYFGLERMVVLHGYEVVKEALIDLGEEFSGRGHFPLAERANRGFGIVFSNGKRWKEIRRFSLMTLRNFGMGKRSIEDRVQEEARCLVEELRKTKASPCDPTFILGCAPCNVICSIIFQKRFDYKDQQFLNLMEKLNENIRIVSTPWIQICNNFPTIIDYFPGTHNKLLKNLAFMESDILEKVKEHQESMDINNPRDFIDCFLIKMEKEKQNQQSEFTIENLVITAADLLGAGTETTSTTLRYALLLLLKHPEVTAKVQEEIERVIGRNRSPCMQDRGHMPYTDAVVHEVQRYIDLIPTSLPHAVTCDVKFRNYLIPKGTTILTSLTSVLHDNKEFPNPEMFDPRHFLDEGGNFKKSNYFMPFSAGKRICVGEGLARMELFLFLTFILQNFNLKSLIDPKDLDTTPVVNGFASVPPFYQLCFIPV

Cytochrome P450 1A2 = molecular target: T3, Cytochrome P450 1A2 (Homo sapiens, UniProt P05177); assay: Inhibition of CYP1A2 (unknown origin); type: ADME
T3 sequence (P05177 whole entry): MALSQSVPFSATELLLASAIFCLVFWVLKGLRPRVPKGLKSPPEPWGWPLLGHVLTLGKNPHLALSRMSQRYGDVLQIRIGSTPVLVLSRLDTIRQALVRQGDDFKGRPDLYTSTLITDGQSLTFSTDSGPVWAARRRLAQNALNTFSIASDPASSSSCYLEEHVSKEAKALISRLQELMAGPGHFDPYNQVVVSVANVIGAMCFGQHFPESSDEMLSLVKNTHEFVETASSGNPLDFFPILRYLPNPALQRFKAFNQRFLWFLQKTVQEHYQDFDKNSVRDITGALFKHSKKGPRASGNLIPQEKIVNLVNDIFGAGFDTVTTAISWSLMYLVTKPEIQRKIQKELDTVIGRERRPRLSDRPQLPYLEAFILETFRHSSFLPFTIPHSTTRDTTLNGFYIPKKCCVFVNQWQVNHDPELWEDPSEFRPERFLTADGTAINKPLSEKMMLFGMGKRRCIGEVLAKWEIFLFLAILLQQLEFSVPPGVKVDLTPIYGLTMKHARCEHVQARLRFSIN

Cytochrome P450 2B6 = molecular target: T4, Cytochrome P450 2B6 (Homo sapiens, UniProt P20813); assay: Inhibition of CYP2B6 (unknown origin); type: ADME
T4 sequence (P20813 whole entry): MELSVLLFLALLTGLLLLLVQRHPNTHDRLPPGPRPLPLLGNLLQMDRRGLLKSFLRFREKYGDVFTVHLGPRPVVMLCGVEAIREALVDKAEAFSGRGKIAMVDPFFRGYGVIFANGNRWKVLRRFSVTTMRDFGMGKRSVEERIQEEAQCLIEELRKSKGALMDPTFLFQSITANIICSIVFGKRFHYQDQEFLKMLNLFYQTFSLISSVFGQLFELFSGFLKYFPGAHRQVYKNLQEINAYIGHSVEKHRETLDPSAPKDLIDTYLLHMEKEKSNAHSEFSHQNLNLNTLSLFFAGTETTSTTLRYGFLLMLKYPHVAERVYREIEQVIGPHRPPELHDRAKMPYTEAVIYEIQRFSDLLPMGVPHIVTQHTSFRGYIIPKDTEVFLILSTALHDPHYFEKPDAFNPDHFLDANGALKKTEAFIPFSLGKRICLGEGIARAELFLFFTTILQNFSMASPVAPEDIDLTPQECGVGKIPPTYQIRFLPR

[5] = Oral bioavailability in rat; type: ADME, organism-based; settings: in vivo
[6] = Half life in rat; type: ADME, organism-based; settings: in vivo

SMILES | IC50 [1] [µM] | IC50 [2] [µM] | other results
O=c1n(Cc2cc([C@@H]3O[C@H](CO)[C@@H](O)[C@H](O)[C@H]3O)ccc2Cl)nc2ccc(F)cn12 | > 90 |  | 
Cc1ccn2c(=O)n(Cc3cc([C@@H]4O[C@H](CO)[C@@H](O)[C@H](O)[C@H]4O)ccc3Cl)nc2c1 | > 90 |  | 
O=c1n(Cc2cc([C@@H]3O[C@H](CO)[C@@H](O)[C@H](O)[C@H]3O)ccc2Cl)nc2cc(OCC(F)(F)F)ccn12 | > 90 | 5.7 | 
Cc1cc2nn(Cc3cc([C@@H]4O[C@H](CO)[C@@H](O)[C@H](O)[C@H]4O)ccc3Cl)c(=O)n2cc1Cl |  | 0.033 | IC50 (Cytochrome P450 2C9): > 11 µM; microsomal CLint [3]: 3.6 µL/min/mg; IC50 (Cytochrome P450 2D6): > 11 µM; microsomal CLint [4]: 2.8 µL/min/mg; IC50 (Cytochrome P450 3A4): > 11 µM; IC50 (Cytochrome P450 2C19): > 11 µM; IC50 (Cytochrome P450 1A2): > 11 µM; IC50 (Cytochrome P450 2B6): > 11 µM
O=c1n(Cc2cc([C@@H]3O[C@H](CO)[C@@H](O)[C@H](O)[C@H]3O)ccc2Cl)nc2cc(Cl)ccn12 |  | 0.089 | 
O=c1n(Cc2cc([C@@H]3O[C@H](CO)[C@@H](O)[C@H](O)[C@H]3O)ccc2Cl)nc2c(Cl)cccn12 | > 90 | 9 | 
O=c1n(Cc2cc([C@@H]3O[C@H](CO)[C@@H](O)[C@H](O)[C@H]3O)ccc2Cl)nc2ccc(C(F)(F)F)cn12 |  | 0.762 | 
O=c1n(Cc2cc([C@@H]3O[C@H](CO)[C@@H](O)[C@H](O)[C@H]3O)ccc2Cl)nc2cc(C(F)(F)F)ccn12 | > 90 | 0.252 | 
O=c1n(Cc2cc([C@@H]3O[C@H](CO)[C@@H](O)[C@H](O)[C@H]3O)ccc2Cl)nc2ccc(CO)cn12 |  | 0.141 | 
O=c1n(Cc2cc([C@@H]3O[C@H](CO)[C@@H](O)[C@H](O)[C@H]3O)ccc2Cl)nc2ccccn12 | > 90 |  | 
CN1C(=O)N(c2ccc(Cc3cc([C@@H]4O[C@H](CO)[C@@H](O)[C@H](O)[C@H]4O)ccc3Cl)cc2)C(C)(C)C1=O | 83.1 | 0.248 | 
O=c1n(Cc2cc([C@@H]3O[C@H](CO)[C@@H](O)[C@H](O)[C@H]3O)ccc2Cl)nc2c(F)cccn12 | > 90 | 3.3 | 
CN1C(=O)CN(c2ccc(Cc3cc([C@@H]4O[C@H](CO)[C@@H](O)[C@H](O)[C@H]4O)ccc3Cl)cc2)C1=O | 90 | 0.489 | 
O=c1n(Cc2cc([C@@H]3O[C@H](CO)[C@@H](O)[C@H](O)[C@H]3O)ccc2Cl)nc2ccc(Cl)cn12 | > 90 | 0.08 | 
Cc1cccc2nn(Cc3cc([C@@H]4O[C@H](CO)[C@@H](O)[C@H](O)[C@H]4O)ccc3Cl)c(=O)n12 | > 90 | 9.92 | 
COc1ccn2c(=O)n(Cc3cc([C@@H]4O[C@H](CO)[C@@H](O)[C@H](O)[C@H]4O)ccc3Cl)nc2c1 | > 90 | 5.48 | 
CCN1C(=O)CN(c2ccc(Cc3cc([C@@H]4O[C@H](CO)[C@@H](O)[C@H](O)[C@H]4O)ccc3Cl)cc2)C1=O |  | 0.0109 | IC50 (Cytochrome P450 2C9): > 11 µM; microsomal CLint [3]: 1.3 µL/min/mg; IC50 (Cytochrome P450 2D6): > 11 µM; microsomal CLint [4]: 1.9 µL/min/mg; bioavailability [5]: 4%; IC50 (Cytochrome P450 3A4): > 11 µM; half-life [6]: 35 min; IC50 (Cytochrome P450 2C19): > 11 µM; IC50 (Cytochrome P450 1A2): > 11 µM; IC50 (Cytochrome P450 2B6): > 11 µM
Cc1ccc2nn(Cc3cc([C@@H]4O[C@H](CO)[C@@H](O)[C@H](O)[C@H]4O)ccc3Cl)c(=O)n2c1 | > 90 | 0.12 | 
O=c1n(Cc2cc([C@@H]3O[C@H](CO)[C@@H](O)[C@H](O)[C@H]3O)ccc2Cl)nc2ccc(Br)cn12 | > 90 | 0.107 | 
